These results are taken from ChEMBL document CHEMBL1130203, “Novel fluoroquinolone antibacterial agents containing oxime-substituted (aminomethyl)pyrrolidines: synthesis and antibacterial activity of 7-(4-(aminomethyl)-3-(methoxyimino)pyrrolidin-1-yl)-1-cyclopropyl-6- fluoro-4-oxo-1,4-dihydro[1,8]naphthyridine-3-carboxylic acid (LB20304)” (J Med Chem, 1997).

In general, MIC refers to the smallest concentration in the dilution series that meets the test's criterion for growth inhibition. Broadly, the ED50 is the dose that gives a 50% effect, or the effect in half of the subjects. Read a high ED50 as a need for a large dose. As a reminder, the bioavailability is dose-corrected exposure relative to a reference, in per cent. Low values mean poor availability, high ones good availability. The Cmax is the peak of the concentration-time curve. What is called half-life is how long it takes for the measured level to halve. The low end stands for rapid decline, the high end for slow decline. What is called AUC is the area under the concentration-time curve, a measure of exposure. Lower therefore signals less exposure. Usually Tmax stands for the time from dosing to the highest level.

Converted amounts (≈) assume the structure as drawn.

The subject of data set [1] is Staphylococcus aureus. Put plainly: Minimum inhibitory concentration (MIC) against Staphylococcus aureus giorgio. It is filed as functional.
Data set [2] deals with Acinetobacter calcoaceticus. Put plainly: Minimum inhibitory concentration (MIC) against Acinetobacter calcoaceticus. The format is functional.
Data set [3] has as its system Staphylococcus epidermidis. Put plainly: Minimum inhibitory concentration (MIC) against Staphylococcus epidermidis 178. It is filed as functional.
For data set [4], the system named is Pseudomonas aeruginosa. Put plainly: Minimum inhibitory concentration (MIC) against Pseudomonas aeruginosa 1912E. The format is functional.
Data set [5] concerns Staphylococcus aureus. Put plainly: Minimum inhibitory concentration (MIC) against Staphylococcus aureus 241. The format is functional.
Data set [6] has as its system Escherichia coli. Put plainly: Minimum inhibitory concentration (MIC) against Escherichia coli TEM9 2639E. The format is functional.
Data set [7] relates to Bacillus subtilis. Put plainly: Minimum inhibitory concentration (MIC) against Bacillus subtilis ATCC 6633. The format is functional.
In data set [8] the test system is Staphylococcus epidermidis. Put plainly: Minimum inhibitory concentration (MIC) against Staphylococcus epidermidis 887E. The format is functional.
Data set [9] concerns Escherichia coli. Put plainly: Minimum inhibitory concentration (MIC) against Escherichia coli 10536. It is filed as functional.
For data set [10], the system named is Klebsiella aerogenes. Put plainly: Minimum inhibitory concentration (MIC) against Klebsiella aerogenes 1082E. The format is functional.
Data set [11] relates to Escherichia coli. Put plainly: Minimum inhibitory concentration (MIC) against Escherichia coli 3190Y. It is filed as functional.
Data set [12] has as its system Staphylococcus aureus. Put plainly: Minimum inhibitory concentration (MIC) against Staphylococcus aureus 6538p. The format is functional.
For data set [13], the system named is Enterococcus faecalis. Put plainly: Minimum inhibitory concentration (MIC) against Streptococcus faecalis 29212. It is filed as functional.
Data set [14] relates to Enterobacter cloacae. Put plainly: Minimum inhibitory concentration (MIC) against Enterobacter cloacae P99. It is filed as functional.
The subject of data set [15] is Acinetobacter calcoaceticus. Put plainly: Minimum inhibitory concentration (MIC) against Acinetobacter calcoaceticus 5473. The format is functional.
For data set [16], the species on record is Mus musculus. Put plainly: 50% Effective Dose against systemic infection in mouse by Pseudomonas aeruginosa 1912E. It is filed as functional.
For data set [17], the system named is Staphylococcus aureus. Put plainly: Minimum inhibitory concentration (MIC) against Staphylococcus aureus giorgo.
Data set [18] can be described thus: Oral bioavailability in rat. It is filed as ADME, organism-based. The conditions noted are these: in vivo.
The test system of data set [19] is Pseudomonas aeruginosa. Put plainly: Minimum inhibitory concentration (MIC) against Pseudomonas aeruginosa 1912E.
The nature of data set [20]: maximum Plasma concentration in Rats was determined after Peroral administration. The format is ADME, organism-based. Set-up: route oral. The conditions noted are these: rat, po.
Data set [21] can be described thus: Half-life in Rats was determined after Peroral administration. It is filed as ADME, organism-based. The conditions noted are these: rat, in vivo, po.
The nature of data set [22]: Area under curve was determined in Rats after peroral administration. It is filed as ADME, organism-based. The conditions noted are these: rat, in vivo, po.
Data set [23] deals with Streptococcus pneumoniae. Put plainly: Minimum inhibitory concentration (MIC) against Streptococcus pneumoniae 77A.
The species entered for data set [24] is Mus musculus. Put plainly: 50% Effective Dose against systemic infection in mouse by Staphylococcus aureus giorgo. The format is functional.
Data set [25] can be described thus: Tmax was determined in Rats after Peroral administration. It is filed as ADME, organism-based. The conditions noted are these: rat, in vivo, po.
The test system of data set [26] is Acinetobacter calcoaceticus. Put plainly: Minimum inhibitory concentration (MIC) against Acinetobacter calcoaceticus 15473. The format is functional.
For data set [27], the species on record is Mus musculus. Put plainly: 50% Effective Dose against systemic infection in mouse by Escherichia coli 851E. The format is functional.
Data set [28] deals with Escherichia coli. Put plainly: Minimum inhibitory concentration (MIC) against Escherichia coli 851E.
Data set [29] in a line: Tmax was determined in dogs after Peroral administration. It is filed as ADME, organism-based, Canis lupus familiaris. The conditions noted are these: dog, in vivo, po.
For data set [30], the species on record is Mus musculus. Put plainly: Minimum inhibitory concentration (MIC) against systemic infection in mouse by Streptococcus pneumoniae 77A. The format is functional.
Data set [31] is filed under the species Mus musculus. Put plainly: Minimum inhibitory concentration (MIC) against systemic infection in mouse by Staphylococcus aureus giorgio. The format is functional.
Data set [32] in a line: Oral Bioavailability was determined in Dogs after Peroral administration. The format is ADME, organism-based, Canis lupus familiaris. The conditions noted are these: dog, in vivo.
Data set [33] is described as follows: maximum Plasma concentration in Dog was determined after Peroral administration. The format is ADME, organism-based, Canis lupus familiaris. Set-up: route oral. The conditions noted are these: po.
Data set [34] is filed under the species Mus musculus. Put plainly: 50% Effective dose against systemic Infection in mouse by Streptococcus pneumoniae 77A. The format is functional.
Data set [35] is described as follows: Half-life in Dogs was determined after Peroral administration. The format is ADME, organism-based, Canis lupus familiaris. The conditions noted are these: dog, in vivo, po.
Data set [36] is filed under the species Mus musculus. Put plainly: 50% Effective dose against systemic Infection in mouse by Staphylococcus aureus giorgio. It is filed as functional.
Data set [37] in a line: Area under curve was determined in Dogs after peroral administration. The format is ADME, organism-based, Canis lupus familiaris. The conditions noted are these: dog, in vivo, po.
The species named for data set [38] is Mus musculus. Put plainly: 50% Effective dose against systemic Infection in mouse by Pseudomonas aeruginosa 1912E. It is filed as functional.
For data set [39], the species on record is Mus musculus. Put plainly: 50% Effective dose against systemic Infection in mouse by Escherichia coli 851E. The format is functional.
Setting [40] is: Staphylococcus epidermidis, read-out: MIC.
Where [41] appears, read: Pseudomonas aeruginosa, read-out: MIC.
[42] abbreviates: Staphylococcus aureus, read-out: MIC.
[43] abbreviates: Escherichia coli, read-out: MIC.
[44] abbreviates: Klebsiella aerogenes, read-out: MIC.
The mark [45] stands for this setting: Enterococcus faecalis, read-out: MIC.

`CO/N=C1\CN(c2c(F)cc3c(=O)c(C(=O)O)cn(C4CC4)c3c2F)CC1CN` (centres undefined): the MIC was < 0.008 µg/mL in data set [1]; 0.031 µg/mL (≈ 0.0763 µM) in data set [2]; 0.5 µg/mL (≈ 1.23 µM) in data set [3] (setting [40]); 0.25 µg/mL (≈ 0.615 µM) in data set [4] (setting [41]); 0.5 µg/mL (≈ 1.23 µM) in [5] (setting [42]); 0.031 µg/mL (≈ 0.0763 µM) in data set [6] (setting [43]). Besides, the MIC in data set [7] is < 0.008 µg/mL; in data set [8], < 0.008 µg/mL; in data set [9], < 0.008 µg/mL; in data set [10] (setting [44]) it was 0.031 µg/mL (≈ 0.0763 µM); in [11] it was < 0.008 µg/mL; in data set [12] it was < 0.008 µg/mL. The MIC in [13] (setting [45]) was determined as 0.031 µg/mL (≈ 0.0763 µM); in [14], 0.016 µg/mL (≈ 0.0394 µM).
`CO/N=C1\CN(c2c(F)cc3c(=O)c(C(=O)O)cn(C4CC4)c3c2Cl)CC1CN` (centres undefined): the MIC in [1] was 0.016 µg/mL (≈ 0.0378 µM); in data set [3] (setting [40]) it was 1 µg/mL (≈ 2.36 µM); in data set [4] (setting [41]) it was 1 µg/mL (≈ 2.36 µM); in data set [5] (setting [42]), 1 µg/mL (≈ 2.36 µM); in data set [6] (setting [43]), 0.25 µg/mL (≈ 0.591 µM); in [15], 0.25 µg/mL (≈ 0.591 µM). Moreover, the MIC was 0.016 µg/mL (≈ 0.0378 µM) in [7]; 0.031 µg/mL (≈ 0.0733 µM) in data set [8]; 0.031 µg/mL (≈ 0.0733 µM) in [9]; 0.25 µg/mL (≈ 0.591 µM) in data set [10] (setting [44]); 0.016 µg/mL (≈ 0.0378 µM) in data set [11]; 0.031 µg/mL (≈ 0.0733 µM) in data set [12]. Also, the minimum inhibitory concentration (MIC) was 0.13 µg/mL (≈ 0.307 µM) in [13] (setting [45]) and 0.063 µg/mL (≈ 0.149 µM) in data set [14].
On to `NCC1CCN(c2nc3c(cc2F)c(=O)c(C(=O)O)cn3C2CC2)C1` (centres undefined), for which the ED50 is 29.8 mg/kg in [16], 8.03 mg/kg in data set [24] and > 13.5 mg/kg in data set [27]. Also, the MIC was found to be 0.031 µg/mL (≈ 0.0895 µM) in [1]; 32 µg/mL (≈ 92.4 µM) in data set [3] (setting [40]); 0.031 µg/mL (≈ 0.0895 µM) in [17]; 0.5 µg/mL (≈ 1.44 µM) in [19]; 0.5 µg/mL (≈ 1.44 µM) in data set [4] (setting [41]); 16 µg/mL (≈ 46.2 µM) in [5] (setting [42]). The MIC was 0.063 µg/mL (≈ 0.182 µM) in data set [6] (setting [43]); 0.016 µg/mL (≈ 0.0462 µM) in [7]; 0.016 µg/mL (≈ 0.0462 µM) in data set [8]; 0.063 µg/mL (≈ 0.182 µM) in data set [23]; 0.031 µg/mL (≈ 0.0895 µM) in [9]; 0.063 µg/mL (≈ 0.182 µM) in [10] (setting [44]). The minimal inhibitory concentration (MIC) in [11] was < 0.008 µg/mL; in [12], 0.031 µg/mL (≈ 0.0895 µM); in data set [13] (setting [45]) it was 0.13 µg/mL (≈ 0.375 µM); in data set [26] (Acinetobacter calcoaceticus, read-out: MIC), 0.13 µg/mL (≈ 0.375 µM); in data set [14], 0.031 µg/mL (≈ 0.0895 µM); in [28] it was 0.031 µg/mL (≈ 0.0895 µM). The bioavailability in data set [18] was determined as 10.1%. The compound further returned a Cmax in [20] of 300 ng/mL. In data set [21], this compound had a half-life of 2.2 h. The AUC in data set [22] came out at 380 ng·h/mL. Further, in [25], the Tmax came out at 0.17 h.
In the case of `CO/N=C1\CN(c2nc3c(cc2F)c(=O)c(C(=O)O)cn3C2CC2)CC1CN` (stereo in doubt; 20) [GEMIFLOXACIN], the time of peak concentration (Tmax) in data set [29] stood at 1.13 h; in data set [25], 0.33 h. Also, the MIC in [30] was 0.016 µg/mL (≈ 0.0411 µM); in data set [31], < 0.008 µg/mL; in data set [3], 4 µg/mL (≈ 10.3 µM); in data set [19], 0.25 µg/mL (≈ 0.642 µM); in [4], 0.25 µg/mL (≈ 0.642 µM); in data set [5], 4 µg/mL (≈ 10.3 µM). The MIC in data set [6] is 0.031 µg/mL (≈ 0.0796 µM); in data set [10], 0.031 µg/mL (≈ 0.0796 µM); in [13], 0.063 µg/mL (≈ 0.162 µM); in data set [26], 0.063 µg/mL (≈ 0.162 µM); in data set [28], < 0.008 µg/mL. Also, the results for the bioavailability in [32] and in data set [18] were 71% and 95.3%, respectively. The Cmax in data set [20] was found to be 2440 ng/mL; in [33], 1340 ng/mL. Moreover, the ED50 in data set [34] turned out to be 7.64 mg/kg; in data set [36] it was 1.17 mg/kg; in data set [38] it was 2.08 mg/kg; in data set [39], 0.47 mg/kg. Further, the half-life in data set [21] was 2.33 h; in [35], 5.12 h. The area under the curve (AUC) in [22] was 8500 ng·h/mL; in data set [37] it was 7550 ng·h/mL.
